The subject of test [1] is hSERT S2-binding site mutants (W103azF, Y107azF, W182azF, Y487azF, K490azF). Briefly: Ultraviolet-induced photocrosslinking of [3H]labelled drug in HEK293T cells. Conditions: 100 nM [3H]drug, 2 h 4 °C, UV 15 min; five S2 azF mutants.
Another test concerns the target hSERT F335azF (Homo sapiens, UniProt P31645). As to the kind of experiment: [3H]5-HT uptake assay (kinetics and uptake inhibition) in HEK293T cells. Conditions: [3H]5-HT uptake inhibition, F335azF (S1 mutant); mean ± s.e.m.
For the next test, the target named is hSERT Y175azF (Homo sapiens, UniProt P31645). The description is as above. As to conditions: [3H]5-HT uptake inhibition, Y175azF (S1 mutant); mean ± s.e.m.
The next test deals with hSERT Y107azF (Homo sapiens, UniProt P31645). The description is as above.
The target of test [2] is T1, hSERT F341azF (Homo sapiens, UniProt P31645). Described as above. Conditions: [3H]5-HT uptake inhibition, F341azF (S1 mutant); mean ± s.e.m.
The next test has as its target hSERT K490azF (Homo sapiens, UniProt P31645). The description is as above. As to conditions: [3H]5-HT uptake inhibition, K490azF (S2 mutant); mean ± s.e.m.
Test [3] deals with T2, hSERT Y95azF (Homo sapiens, UniProt P31645). The description is as above.
The target of test [4] is T3, SERT WT (Homo sapiens, UniProt P31645). Described as above.
In the next test the target is hSERT Y487azF (Homo sapiens, UniProt P31645). Described as above. Conditions: [3H]5-HT uptake inhibition, Y487azF (S2 mutant); mean ± s.e.m.
Test [5] has as its target T3, SERT WT. Briefly: [3H]5-HT saturation uptake in the presence of a fixed concentration of vortioxetine (competitive inhibition). Format: cell-based. The arrangement: expressed in transfected cells; host or cells: HEK293T. As to conditions: control 4.21 ± 0.45.
In a further test the target is hSERT I168azF (Homo sapiens, UniProt P31645). As to the kind of experiment: [3H]5-HT uptake assay (kinetics and uptake inhibition) in HEK293T cells.
Test [6] has as its target T4, WT hSERT (Homo sapiens, UniProt P31645). Briefly: Saturation binding of [3H]vortioxetine / [3H]imipramine to HEK293T membranes expressing hSERT. The arrangement: expressed in transfected cells; host or cells: HEK293T. Conditions: [3H]ligand saturation binding.
The target of another test is hSERT W103azF (Homo sapiens, UniProt P31645). As to the kind of experiment: [3H]5-HT uptake assay (kinetics and uptake inhibition) in HEK293T cells. As to conditions: [3H]5-HT uptake inhibition, W103azF (S2 mutant); mean ± s.e.m.
Test [7] has as its target T1, hSERT F341azF. As to the kind of experiment: Ultraviolet-induced photocrosslinking of [3H]labelled drug in HEK293T cells.
The target of a further test is hSERT W182azF (Homo sapiens, UniProt P31645). Briefly: [3H]5-HT uptake assay (kinetics and uptake inhibition) in HEK293T cells. As to conditions: [3H]5-HT uptake inhibition, W182azF (S2 mutant); mean ± s.e.m.
The target of test [8] is T4, WT hSERT. As to the kind of experiment: Ultraviolet-induced photocrosslinking of [3H]labelled drug in HEK293T cells. As to conditions: 100 nM [3H]drug, 2 h 4 °C, UV 15 min.
In test [9] the target is T2, hSERT Y95azF. As to conditions: 100 nM [3H]drug, 2 h 4 °C, UV 15 min, 50–100 kDa segment.

Usually Ki stands for a dissociation constant, usually derived from enzyme kinetics or from competition with a known ligand. Broadly, the Kd is the equilibrium constant for the complex coming apart. Higher therefore signals a looser complex.

T3 sequence (P31645 whole entry): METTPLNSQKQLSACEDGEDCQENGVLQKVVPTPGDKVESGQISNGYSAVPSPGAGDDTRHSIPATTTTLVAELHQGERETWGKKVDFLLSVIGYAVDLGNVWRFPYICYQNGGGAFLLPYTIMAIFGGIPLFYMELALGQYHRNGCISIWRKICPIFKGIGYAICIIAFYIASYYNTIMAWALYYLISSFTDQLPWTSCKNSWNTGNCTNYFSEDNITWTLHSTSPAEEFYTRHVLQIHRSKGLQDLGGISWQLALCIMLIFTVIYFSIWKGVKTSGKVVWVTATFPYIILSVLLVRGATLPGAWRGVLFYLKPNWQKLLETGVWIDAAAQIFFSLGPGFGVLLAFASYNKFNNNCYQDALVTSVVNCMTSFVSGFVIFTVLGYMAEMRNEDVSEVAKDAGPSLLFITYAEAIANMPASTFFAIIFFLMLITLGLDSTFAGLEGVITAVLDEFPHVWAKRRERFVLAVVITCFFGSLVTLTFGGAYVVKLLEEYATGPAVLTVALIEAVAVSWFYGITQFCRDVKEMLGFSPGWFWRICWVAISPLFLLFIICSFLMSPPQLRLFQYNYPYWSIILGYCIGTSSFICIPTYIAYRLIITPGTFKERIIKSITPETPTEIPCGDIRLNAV
T2 sequence (P31645 whole entry): as above
T4 sequence (P31645 whole entry): as above
T1 sequence (P31645 whole entry): as above
Sequence of hSERT I168azF (P31645 whole entry): as above
Sequence of hSERT Y107azF (P31645 whole entry): as above
Sequence of hSERT F335azF (P31645 whole entry): as above
Sequence of hSERT W182azF (P31645 whole entry): as above

In the case of `CN(C)CCCN1c2ccccc2CCc2ccccc21` [imipramine], in [1], the “ultraviolet-induced crosslinking (radioactivity signal vs non-UV control)” value is “did not crosslink”.

For the molecule `Cc1ccc(Sc2ccccc2N2CCNCC2)c(C)c1` [vortioxetine], the Ki on hSERT F335azF was 54 ± 9 nM; on hSERT Y175azF, 53 ± 6 nM; at hSERT Y107azF ([3H]5-HT uptake inhibition, Y107azF (S2 mutant), mean ± s.e.m.), 38 ± 9 nM; at hSERT F341azF [2], 43 ± 5 nM; at hSERT K490azF it was 56 ± 20 nM; on hSERT Y95azF [3] ([3H]5-HT uptake inhibition, Y95azF (S1 mutant), mean ± s.e.m.), 1240 ± 125 nM. Moreover, the inhibition constant (Ki) stood at 202 ± 19 nM at SERT WT [4]; 96 ± 16 nM at hSERT Y487azF; 19 ± 3 nM at hSERT I168azF ([3H]5-HT uptake inhibition, I168azF (S1 mutant), mean ± s.e.m.); 149 ± 12 nM at hSERT W103azF; 74 ± 9 nM at hSERT W182azF. Also, the “increase in potency (more sensitive) relative to WT hSERT” value on hSERT Y107azF (Y107azF vs WT, Ki in [3H]5-HT uptake inhibition) came out at 5 fold; at hSERT I168azF (I168azF vs WT, Ki in [3H]5-HT uptake inhibition), 10 fold. Moreover, the “ultraviolet-induced crosslinking (radioactivity signal vs non-UV control)” value is “indistinguishable” in test [1]; “significant ultraviolet-dependent radioactivity signal was detected” at hSERT F341azF [7] (100 nM [3H]drug, 2 h 4 °C, UV 15 min, 50–100 kDa segment); “no signal was detected” at hSERT Y95azF [9]. Moreover, the “decrease in potency relative to WT hSERT” value on hSERT Y95azF [3] (Y95azF vs WT, Ki in [3H]5-HT uptake inhibition) turned out to be 6 fold. The “Vmax of 5-HT uptake in presence of inhibitor” value is listed as 4.19 ± 0.50 pmol min-1 per well on SERT WT [5] (0.75 µM vortioxetine) and 4.03 ± 0.36 pmol min-1 per well at SERT WT [5] (1 µM vortioxetine). Also, the Kd on WT hSERT [6] (WT hSERT C-terminally fused to 1D4 tag, mean±s.e.m.) was 6.3 ± 0.7 nM; at WT hSERT [6] (WT hSERT without 1D4 tag), 6.1 ± 1.1 nM. Moreover, the “displacement of crosslinking radioactivity signal by unlabelled inhibitor” value at hSERT F341azF [7] (100 μM unlabelled inhibitor added before ultraviolet exposure) is recorded as “full displacement”. Moreover, the “ultraviolet-induced crosslinking (radioactivity signal)” value at WT hSERT [8] is “no radioactivity signal was observed”.

The values above are taken from publication PMC4838859, “Genetically encoded photocrosslinkers locate the high-affinity binding site of antidepressant drugs in the human serotonin transporter” (Nature Communications, 2016).
